The values below come from patent publication EP0604653A1, “COMPLEX OF COMPOUND HAVING CHALCONE SKELETON” (TAISHO PHARMACEUTICAL CO. LTD, priority 1991, dated 1993).

Data set [1] deals with Hydrochloric Acid-Induced Lesion. Kind of data set: Hydrochloric acid-induced gastric mucosal lesion, length of ulcerations. As to conditions: rats, intraduodenal, dose of SU-740 10, 35 or 60 mg/kg, 0.6 N hydrochloric acid 1 hour later; FIG. 6. Format: in vivo, rat. On the procedure: Seventy-two rats divided into 9 groups each consisting of 8 animals were used. A 0.2 mℓ/100 g of the sample dispersed in a 5 % gum arabic suspension was intraduodenally administered to a rat so as to make a dose of SU-740 become 10 mg, 35 mg or 60 mg per kg-body weight. β-Cyclodextrin was similarly administered at a dose corresponding to the SU-740 content in the complex obtained in Example 2. On hour later, 1 mℓ of 0.6 N hydrochloric acid was administered, and 1 hour thereafter the abdomen was opened, and the length of the ulcerations was measured to evaluate the inhibitory effect on mucosal lesions.

Data set [2] in a line: Test of absorbability after oral capsule administration (cross-over, Latin square). Format: in vivo. As to conditions: beagles, dose of SU-740 100 mg/kg, FIG. 5. On the procedure: The test was conducted by a cross-over testing method according to a Latin square method using 15 beagles divided into three groups each consisting of 5 test animals. Each sample was put in a capsule and orally given to the animal so as to make a dose of SU-740 become 100 mg/kg.

The test system of data set [3] is Histamine-Induced Ulceration. Description: Histamine-induced ulceration, area of lesions. It counts as in vivo. The conditions noted are these: rats, i.d., dose of SU-740 31.4 mg/kg (Complex 200.0 mg/kg); histamine 300 mg/kg i.p. 3 hours later, lesion area 4 hours thereafter. The method, then: The test was carried out in accordance with the method described in M. Muramatsu et al., Arzeneim. Forsch., Vol. 40(I)1, p. 49 (1990). The sample dispersed in a 1 % gum arabic suspension was intraduodenally administrated to rats having been deprived of food for 24 hours so as to make a dose of SU-740 become 31.4 mg/kg. Three hours later, 300 mg/kg of histamine was intraperitoneally administered, and 4 hours thereafter the abdomen was opened, and the area of lesions was measured to evaluate the inhibitory effect on mucosal lesions.

Data set [4] relates to Prostaglandin (PG) Metabolic Enzyme. Description: PG metabolic enzyme activity in excised gastric mucosa after dosing (decomposition of PGE₁ as index). Format: in vivo. The conditions noted are these: rats, i.d., dose of SU-740 31.4 mg/kg (Complex 200.0 mg/kg). On the procedure: The test was carried out in accordance with the method described in M. Muramatsu et al., Biochemical Pharmacology, Vol. 33(16), p. 2629 (1984). The sample dispersed in a 1 % gum arabic suspension was intraduodenally administered to rats having been deprived of food for 24 hours so as to make a dose of SU-740 become 31.4 mg/kg. Two hours later, the gastric mucosa was excised, and a PG metabolic enzyme was extracted therefrom and analyzed with a spectrophotometer. The effect was examined taking decomposition of PGE₁ as an index.

Data set [5] has as its system PGE₂ Content in Rat Gastric Mucosa. Kind of data set: PGE₂ content in gastric mucosa after dosing (radioimmunoassay). It counts as in vivo. As to conditions: rats, i.d., dose of SU-740 31.4 mg/kg (Complex 200.0 mg/kg). On the procedure:
The test was carried out in accordance with the method described in M. Muramatsu et al., Life Science, Vol. 41, p. 315 (1987). The sample dispersed in a 1 % gum arabic suspension was intraduodenally administered to rats having been deprived of food for 24 hours so as to make a dose of SU -740 become 31.4 mg/kg. After 24 hours from the administration, the gastric mucosa was excised under anesthesia with ether and 2 mℓ of a 20 µM anhydrous solution of Indomethacin was added thereto, followed by homogenization. After allowing to stand for 1 hour, the homogenate was subjected to centrifugation at 3000 rpm for 10 minutes and the supernatant liquor (PG mixture) was lyophilized. The resulting PG mixture was suspended in distilled water, and extracted with methanol by means of a column (vac elute). Then the extract was lyophilized, and subjected to measurement by means of a radioimmunoassay kit.

The next data set relates to Gastric Acid Secretion. Description: Gastric acid secretion in conscious dog with chronic fistula, stimulated by 2-deoxy-D-glucose. It counts as in vivo. As to conditions: p.o., table doses: SU-740 200.0 mg/kg, Complex 200.0 (31.4 as SU-740) mg/kg. The method, then: The test was carried out in accordance with the method described in Gastroenterology, Vol. 85, p. 900 (1983). A dog to which a fistula had been chronically fitted was deprived of food for 20 hours. […] One hour later, 300 mg/kg of 2-deoxy-D-glucose was intravenously injected. Two hours from the injection, the gastric acid secretion was measured.

The structures appear in SMILES notation.

Consider `OC[C@H]1O[C@@H]2O[C@H]3[C@H](O)[C@@H](O)[C@@H](O[C@H]4[C@H](O)[C@@H](O)[C@@H](O[C@H]5[C@H](O)[C@@H](O)[C@@H](O[C@H]6[C@H](O)[C@@H](O)[C@@H](O[C@H]7[C@H](O)[C@@H](O)[C@@H](O[C@H]8[C@H](O)[C@@H](O)[C@@H](O[C@H]1[C@H](O)[C@H]2O)O[C@@H]8CO)O[C@@H]7CO)O[C@@H]6CO)O[C@@H]5CO)O[C@@H]4CO)O[C@@H]3CO` [β-Cyclodextrin, β-cyclodextrin], for which the “inhibitory effect on mucosal lesions” value in data set [1] is reported as “little effect”.

`CC(C)=CCOc1ccc(C(=O)/C=C/c2ccc(C(C)(C)C)cc2)c(OCC(=O)O)c1` [SU-740, 4-t-butyl-2'-carboxymethoxy-4'-(3-methyl-2-butenyloxy)chalcone]: the absorbability entry in data set [2] is “scarcely absorbed”. Further, the “Inhibitory Ratio (%)” value worked out at 66.7% in data set [3] and 20.9% in the data set with Gastric Acid Secretion (gastric acid secretion). In addition, in data set [4] (PG metabolic enzyme activity), the “% of Control” value is on record as 81.3%. Further, in data set [4] (gastric mucosa excised two hours later), the “PG Metabolic Enzyme Activity (nmol/mg protein/min)” value is 0.61±0.05 nmol/mg protein/min. In addition, the activity at 31.4 mg/kg in data set [5] (Rattus norvegicus, intraduodenal, PGE₂ content, read-out: % of Control) is 396%. The “PGE₂ Content (pg/g wet weight)” value in data set [5] (gastric mucosa 24 hours after administration) stood at 309.1±57.0 pg/g wet weight. In addition, the “Gastric Acid Secretion (mEq/1 hr)” value in the data set with Gastric Acid Secretion (2-deoxy-D-glucose 300 mg/kg i.v. one hour later) was 12.1±2.1 mEq/1 hr.
